For orientation: IC50 means the concentration that gives 50% inhibition. A lower IC50 goes with greater potency in that assay.

The record followed here is patent publication US10800791B2, “Triazole ACC inhibitors and uses thereof” (Gilead Apollo, LLC, priority 2015, dated 2020).

The structures appear in SMILES notation. In brackets after ≈: the same amount, converted by molar mass. Read-outs that look alike come from different tables or passages of the source.

For one assay, the system named is Rhizoctonia solani (Rs). As to the kind of experiment: Growth inhibition assay of fungal pathogens, Rs. The class given is cell-based. To be noted: 48 h. As to the method: Compounds of the present invention were evaluated in a growth inhibition assay to determine the ability to control the growth of fungal pathogens, such as Botrtyis cinerea (Bc), Collectotrichum graminicola (Cg), Diplodia maydis (Dm), Fusarium moniliforme (Fm), Fusarium virguliforme (Fv), Phytophthora capsici (Pc), Rhizoctonia solani (Rs), and Septoria tritici (St).
Compounds to be tested were dissolved in DMSO at 2.5 mg/ml to produce compound stock solutions (“stocks”). Stocks were diluted with DMSO by a five-fold dilution in a 96-well stock plate, and two sets of final concentrations of 50, 10, and 2 ppm or 2, 0.4, and 0.08 ppm were obtained in vitro. A set of positive controls was also prepared, with various concentrations of Soraphen (2, 0.4, and 0.08 ppm), Metalaxyl (1.1, 0.22, and 0.04 ppm), and Metconazole (2, 0.4, and 0.08 ppm or 0.2, 0.04, and 0.008 ppm) after the five-fold dilutions. Negative controls on each plate included 2% DMSO, water, and a blank (media+2% DMSO).
Fungal spores were isolated from previously sub-cultured plates of Botrtyis cinerea (Bc), Collectotrichum graminicola (Cg), Diplodia maydis (Dm), Fusarium moniliforme (Fm), Fusarium virguliforme (Fv), Phytophthora capsici (Pc), and Septoria tritici (St). The isolated spores were diluted to individual concentrations with a 17% V8 liquid media. For Rhizoctonia solani (Rs) and Pythium irregulare, 1.5 mm mycelial plugs were used in place of spores and/4 Potato Dextrose Broth (PDB) was used for dilution. The spore concentrations and plug sizes were based on growth curves generated at 48 hours for each pathogen.
In a second 96-well plate, the spores or mycelial plugs, media, diluted compound solutions, and controls were combined. Once the compound was added, a true final concentration of compound in each well was measured by an OD600 reading, which adjusted for any compound precipitation that might have occurred in the well. Plate readings were repeated at both 24 and 48 hours. The blank negative control was used as a background subtraction. Additional visual ratings were performed at both 24 and 48 hours for checking on precipitation and confirming efficacy. Visual and OD600 ratings of the compounds at 48 hours were compared to the 2% DMSO negative control, and the percent of pathogen growth inhibition was determined based on those values.

For the next assay, the target named is human (hACC2) (Homo sapiens, UniProt O00763). As to the kind of experiment: In vitro ACC inhibition assay (ADP-Glo), hACC2. The assay is classed as biochemical. To be noted: 5 nM ACC2, 20 μM ATP, 20 μM acetyl-CoA. The method, then:
The detailed procedure is as follows. […] 10 μL ADP glo reagent was added. […] 20 μL kinase detection reagent was added.

Where [1] appears, read: read-out: Concentration at 90% Inhibition Rs, Rhizoctonia solani, mycelial plugs, growth inhibition at 48 hours vs 2% DMSO control.
Setting [2] is: read-out: Concentration at 90% Inhibition Rs, Rhizoctonia solani, mycelial plugs, growth inhibition vs 2% DMSO control at 48 hours.
[3] abbreviates: mycelial plugs, growth inhibition at 48 hours vs 2% DMSO control, read-out: Concentration at 90% Inhibition Rs.
Where [4] appears, read: mycelial plugs, growth inhibition vs 2% DMSO control at 48 hours, read-out: Concentration at 90% Inhibition Rs.

Chain of human (hACC2) (O00763 whole entry): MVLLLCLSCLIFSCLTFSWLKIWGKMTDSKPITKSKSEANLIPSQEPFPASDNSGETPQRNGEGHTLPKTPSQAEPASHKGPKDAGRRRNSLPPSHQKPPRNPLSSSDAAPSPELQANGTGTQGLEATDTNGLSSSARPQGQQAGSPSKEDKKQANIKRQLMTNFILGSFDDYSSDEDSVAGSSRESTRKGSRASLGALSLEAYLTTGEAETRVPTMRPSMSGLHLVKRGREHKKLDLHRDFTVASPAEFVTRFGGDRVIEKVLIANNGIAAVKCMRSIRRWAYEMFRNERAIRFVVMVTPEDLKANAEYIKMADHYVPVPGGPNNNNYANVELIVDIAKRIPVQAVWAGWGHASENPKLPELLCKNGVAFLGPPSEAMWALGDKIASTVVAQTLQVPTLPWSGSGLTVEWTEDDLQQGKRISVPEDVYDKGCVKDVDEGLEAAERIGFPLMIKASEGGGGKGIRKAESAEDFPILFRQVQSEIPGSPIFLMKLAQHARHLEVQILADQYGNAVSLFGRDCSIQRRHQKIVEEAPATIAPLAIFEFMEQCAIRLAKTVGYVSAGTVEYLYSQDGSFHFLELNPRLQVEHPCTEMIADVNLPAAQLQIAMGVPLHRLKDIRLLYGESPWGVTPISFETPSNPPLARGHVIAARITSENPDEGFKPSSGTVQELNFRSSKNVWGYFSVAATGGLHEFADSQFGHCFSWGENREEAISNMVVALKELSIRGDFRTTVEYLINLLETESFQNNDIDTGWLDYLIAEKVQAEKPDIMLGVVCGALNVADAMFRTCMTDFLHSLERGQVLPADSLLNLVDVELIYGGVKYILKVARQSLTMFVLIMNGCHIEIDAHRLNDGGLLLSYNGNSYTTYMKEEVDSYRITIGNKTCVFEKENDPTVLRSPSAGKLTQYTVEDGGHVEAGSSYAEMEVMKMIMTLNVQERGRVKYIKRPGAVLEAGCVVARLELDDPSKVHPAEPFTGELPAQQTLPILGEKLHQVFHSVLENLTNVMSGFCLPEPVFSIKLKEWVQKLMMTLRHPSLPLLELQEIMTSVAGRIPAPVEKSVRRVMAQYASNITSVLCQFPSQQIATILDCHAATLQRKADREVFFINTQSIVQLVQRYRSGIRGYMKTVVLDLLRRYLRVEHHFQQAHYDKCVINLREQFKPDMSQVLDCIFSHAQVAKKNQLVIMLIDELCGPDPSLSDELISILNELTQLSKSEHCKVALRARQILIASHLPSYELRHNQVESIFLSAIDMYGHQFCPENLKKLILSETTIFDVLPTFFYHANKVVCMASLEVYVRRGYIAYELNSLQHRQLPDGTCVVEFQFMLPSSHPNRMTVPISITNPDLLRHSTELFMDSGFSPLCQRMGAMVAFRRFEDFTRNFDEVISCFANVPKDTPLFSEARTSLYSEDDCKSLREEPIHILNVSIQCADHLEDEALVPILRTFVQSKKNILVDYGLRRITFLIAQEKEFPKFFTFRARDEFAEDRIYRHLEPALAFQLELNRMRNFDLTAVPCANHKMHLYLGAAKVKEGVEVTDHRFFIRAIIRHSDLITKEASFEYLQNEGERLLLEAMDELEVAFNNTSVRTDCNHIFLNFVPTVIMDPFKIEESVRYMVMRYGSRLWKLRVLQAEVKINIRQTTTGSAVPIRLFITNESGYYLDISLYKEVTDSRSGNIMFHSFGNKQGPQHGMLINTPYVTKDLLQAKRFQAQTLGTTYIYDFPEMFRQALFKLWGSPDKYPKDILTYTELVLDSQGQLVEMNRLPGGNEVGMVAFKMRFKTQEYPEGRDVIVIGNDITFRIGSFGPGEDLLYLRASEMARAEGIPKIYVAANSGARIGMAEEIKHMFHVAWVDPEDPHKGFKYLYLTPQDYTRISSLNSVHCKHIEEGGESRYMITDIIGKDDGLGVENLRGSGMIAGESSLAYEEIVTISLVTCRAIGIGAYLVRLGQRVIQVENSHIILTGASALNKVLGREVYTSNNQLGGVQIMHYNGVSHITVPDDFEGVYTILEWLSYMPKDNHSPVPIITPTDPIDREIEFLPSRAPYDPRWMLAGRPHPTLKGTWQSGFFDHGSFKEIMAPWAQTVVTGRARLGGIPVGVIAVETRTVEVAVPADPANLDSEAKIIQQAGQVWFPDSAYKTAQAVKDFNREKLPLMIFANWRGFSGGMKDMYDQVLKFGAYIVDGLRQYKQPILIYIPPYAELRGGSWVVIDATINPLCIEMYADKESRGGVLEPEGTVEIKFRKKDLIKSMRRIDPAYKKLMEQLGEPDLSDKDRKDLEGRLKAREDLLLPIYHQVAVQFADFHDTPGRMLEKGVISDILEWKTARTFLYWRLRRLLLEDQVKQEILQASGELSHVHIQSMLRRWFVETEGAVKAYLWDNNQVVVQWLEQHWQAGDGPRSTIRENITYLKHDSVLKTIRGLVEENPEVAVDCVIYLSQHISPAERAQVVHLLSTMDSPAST

On to `COc1ccc(F)cc1[C@H](Cn1c(=O)n(C(C)(C)C(=O)NC(C)C)c(=O)c2c(C)c(-n3nccn3)sc21)OCC(C)(C)O` [Compound I-57, (R)-2-(1-(2-(5-fluoro-2-methoxyphenyl)-2-(2-hydroxy-2-methylpropoxy)ethyl)-5-methyl-2,4-dioxo-6-(2H-1,2,3-triazol-2-yl)-1,4-dihydro-thieno[2,3-d]pyrimidin-3(2H)-yl)-N-isopropyl-2-methylpropanamide], for which the IC90 with Rhizoctonia solani (Rs) (setting [1]) and with Rhizoctonia solani (Rs) (setting [2]) was 0.4 µg/mL (≈ 0.649 µM) throughout. The IC50 lay within 10 to 40 nM at human (hACC2) (Table 2a) and 10 to 40 nM on human (hACC2) (Table 2b, additional results).

`COc1ccc(F)cc1[C@H](Cn1c(=O)n(C(C)(C)C(=O)N2CCCC2)c(=O)c2c(C)c(-n3nccn3)sc21)OCC(C)(C)O` [Compound I-58, (R)-1-(2-(5-fluoro-2-methoxyphenyl)-2-(2-hydroxy-2-methylpropoxy)ethyl)-5-methyl-3-(2-methyl-1-oxo-1-(pyrrolidin-1-yl)propan-2-yl)-6-(2H-1,2,3-triazol-2-yl)thieno[2,3-d]pyrimidine-2,4(1H,3H)-dione]: the IC90 in the assay with Rhizoctonia solani (Rs) (setting [3]) and with Rhizoctonia solani (Rs) (setting [4]) was 0.4 µg/mL (≈ 0.636 µM) each time. The IC50 at human (hACC2) (Table 2a) fell in the range of 10 to 40 nM; against human (hACC2) (Table 2b, additional results), 10 to 40 nM.

Regarding `COCCO[C@@H](Cn1c(=O)n(C(C)(C)C(=O)NC(C)C)c(=O)c2c(C)c(-n3nccn3)sc21)c1cc(F)ccc1OC` [Compound I-59, (R)-2-(1-(2-(5-fluoro-2-methoxyphenyl)-2-(2-methoxy-ethoxy)ethyl)-5-methyl-2,4-dioxo-6-(2H-1,2,3-triazol-2-yl)-1,4-dihydro-thieno[2,3-d]pyrimidin-3(2H)-yl)-N-isopropyl-2-methylpropanamide], the IC90 in the assay on Rhizoctonia solani (Rs) (setting [1]) and in the assay on Rhizoctonia solani (Rs) (setting [2]) was 0.4 µg/mL (≈ 0.664 µM) throughout. Moreover, the IC50 at human (hACC2) (Table 2a) is 5 to 10 nM; against human (hACC2) (Table 2b, additional results), 5 to 10 nM.

As for `COCCO[C@@H](Cn1c(=O)n(C(C)(C)C(=O)N2CCCC2)c(=O)c2c(C)c(-n3nccn3)sc21)c1cc(F)ccc1OC` [Compound I-60, (R)-1-(2-(5-fluoro-2-methoxyphenyl)-2-(2-methoxy-ethoxy)ethyl)-5-methyl-3-(2-methyl-1-oxo-1-(pyrrolidin-1-yl)propan-2-yl)-6-(2H-1,2,3-triazol-2-yl)thieno[2,3-d]pyrimidine-2,4(1H,3H)-dione], the IC90 in the assay on Rhizoctonia solani (Rs) (setting [3]) and in the assay on Rhizoctonia solani (Rs) (setting [4]) was over 50 µg/mL in each case. The IC50 on human (hACC2) (Table 2a) was in the range of 10 to 40 nM; on human (hACC2) (Table 2b, additional results), 10 to 40 nM.

In the case of `COCCOc1ccc(F)cc1[C@H](Cn1c(=O)n(C(C)(C)C(=O)NC(C)C)c(=O)c2c(C)c(-n3nccn3)sc21)OC1CCOCC1` [Compound I-61, (R)-2-(1-(2-(5-fluoro-2-(2-methoxyethoxy)phenyl)-2-((tetrahydro-2H-pyran-4-yl)oxy)ethyl)-5-methyl-2,4-dioxo-6-(2H-1,2,3-triazol-2-yl)-1,4-dihydrothieno[2,3-d]pyrimidin-3(2H)-yl)-N-isopropyl-2-methylpropanamide], the IC90 with Rhizoctonia solani (Rs) (setting [3]) and in the assay on Rhizoctonia solani (Rs) (setting [4]) was 0.08 µg/mL (≈ 0.119 µM) throughout. The IC50 lay in the range of 5 to 10 nM against human (hACC2) (Table 2a) and 5 to 10 nM on human (hACC2) (Table 2b, additional results).
